Source: patent US8829034B2, “Compounds which modulate the CB2 receptor” (Boehringer Ingerlheim International GmbH, priority 2006, dated 2014)
Like-named read-outs stand apart in the source and are kept apart here.

Target: T1, human CB2R (Homo sapiens, UniProt P34972)
T1 construct: host or cells: CHO cells
Experiment: CB2R mediated modulation of cAMP synthesis
Assay type: cell-based
Conditions: for agonistic activity: found through the use of the above described assays
Summary of the method: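 CHO cells expressing human CB2R were treated with compound for 30 min at 37 °C in buffer containing 1 mM IBMX, 0.25% BSA and 10 uM forskolin. cAMP was measured after lysis. EC50 was taken as 50% inhibition of forskolin-stimulated cAMP, with 100% defined by 1 uM CP55940, using a four-parameter logistic fit.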

T1 sequence (P34972 whole entry): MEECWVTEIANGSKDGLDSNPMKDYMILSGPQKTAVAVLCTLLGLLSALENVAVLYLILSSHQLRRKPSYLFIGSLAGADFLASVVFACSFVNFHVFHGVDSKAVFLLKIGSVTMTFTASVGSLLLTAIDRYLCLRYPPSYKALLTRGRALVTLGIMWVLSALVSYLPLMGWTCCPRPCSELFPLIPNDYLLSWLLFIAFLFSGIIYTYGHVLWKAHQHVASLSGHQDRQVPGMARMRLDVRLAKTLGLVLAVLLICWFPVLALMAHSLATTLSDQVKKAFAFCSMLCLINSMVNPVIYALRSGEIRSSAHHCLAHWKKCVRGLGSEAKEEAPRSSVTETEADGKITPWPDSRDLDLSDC

Structure (SMILES): CC(C)(C)c1csc(NC(=O)C(C)(C)S(=O)(=O)C(C)(C)C)n1 [N-(4-tert-Butyl-thiazol-2-yl)-2-methyl-2-(2-methyl-propane-2-sulfonyl)-propionamide]
- EC50: 61.1 nM
- agonistic activity: agonistic activity

Structure (SMILES): CCCS(=O)(=O)C(C)(C)C(=O)Nc1nc(C(C)(C)C)cs1 [N-(4-tert-Butyl-thiazol-2-yl)-2-methyl-2-(propane-1-sulfonyl)-propionamide]
- EC50: 19.2 nM
- agonistic activity: agonistic activity

Structure (SMILES): CC(C)S(=O)(=O)C(C)(C)C(=O)Nc1nc(C(C)(C)C)cs1 [N-(4-tert-Butyl-thiazol-2-yl)-2-methyl-2-(propane-2-sulfonyl)-propionamide]
- agonistic activity: agonistic activity

Structure (SMILES): CC(C)(C)c1csc(NC(=O)C(C)(C)S(=O)(=O)C2CCOCC2)n1 [N-(4-tert-Butyl-thiazol-2-yl)-2-methyl-2-(tetrahydro-pyran-4-sulfonyl)-propionamide]
- EC50 (CHO cells expressing human CB2R, inhibition of forskolin-stimulated cAMP synthesis, compounds having agonist activity, read-out: CB2 EC50): 12.4 nM
- agonistic activity: agonistic activity

Structure (SMILES): CC(C)(C)c1csc(NC(=O)C(C)(C)S(=O)(=O)CC2CCOCC2)n1 [N-(4-tert-Butyl-thiazol-2-yl)-2-methyl-2-(tetrahydro-pyran-4-ylmethanesulfonyl)-propionamide]
- agonistic activity: agonistic activity

Structure (SMILES): CC(C)C(C(=O)Nc1nc(C(C)(C)C)cs1)S(=O)(=O)C(C)C (stereo not shown) [N-(4-tert-Butyl-thiazol-2-yl)-3-methyl-2-(propane-2-sulfonyl)-butyramide]
- agonistic activity: agonistic activity

Structure (SMILES): CCCS(=O)(=O)C(C)(C)C(=O)Nc1nc(-c2ccccc2)c(CC)s1 [N-(5-Ethyl-4-phenyl-thiazol-2-yl)-2-methyl-2-(propane-1-sulfonyl)-propionamide]
- EC50: 10.8 nM
- agonistic activity: agonistic activity

Structure (SMILES): CCc1sc(NC(=O)C(C)(C)S(=O)(=O)CC2CCOCC2)nc1-c1ccccc1 [N-(5-Ethyl-4-phenyl-thiazol-2-yl)-2-methyl-2-(tetrahydro-pyran-4-ylmethanesulfonyl)-propionamide]
- EC50: 2 nM
- agonistic activity: agonistic activity

Structure (SMILES): CC(C)c1cc(NC(=O)C(C)(C)S(=O)(=O)CC2CCOCC2)n(C)n1 [N-(5-Isopropyl-2-methyl-2H-pyrazol-3-yl)-2-methyl-2-(tetrahydro-pyran-4-ylmethanesulfonyl)-propionamide]
- agonistic activity: agonistic activity

Structure (SMILES): CC(C)(C)c1nnc(NC(=O)C(C)(C)S(=O)(=O)C2CCCC2)s1 [N-(5-tert-Butyl-1,3,4-thiadiazol-2-yl)-2-cyclopentanesulfonyl-2-methyl-propionamide]
- EC50: 18.6 nM
- agonistic activity: agonistic activity

Structure (SMILES): Cn1nc(C(C)(C)C)cc1NC(=O)C(C)(C)S(=O)(=O)CC(C)(C)C [N-(5-tert-Butyl-2-methyl-2H-pyrazol-3-yl)-2-(2,2-dimethyl-propane-1-sulfonyl)-2-methyl-propionamide]
- agonistic activity: agonistic activity

Structure (SMILES): CCCC(CC)S(=O)(=O)C(C)(C)C(=O)Nc1cc(C(C)(C)C)nn1C (stereo not shown) [N-(5-tert-Butyl-2-methyl-2H-pyrazol-3-yl)-2-(hexane-3-sulfonyl)-2-methyl-propionamide]
- agonistic activity: agonistic activity

Structure (SMILES): Cn1nc(C(C)(C)C)cc1NC(=O)C(C)(C)S(=O)(=O)CC1CCC1 [N-(5-tert-Butyl-2-methyl-2H-pyrazol-3-yl)-2-cyclobutylmethanesulfonyl-2-methyl-propionamide]
- EC50: 33 nM
- agonistic activity: agonistic activity

Structure (SMILES): Cn1nc(C(C)(C)C)cc1NC(=O)C(C)(C)S(=O)(=O)C1CCCCCC1 [N-(5-tert-Butyl-2-methyl-2H-pyrazol-3-yl)-2-cycloheptanesulfonyl-2-methyl-propionamide]
- EC50: 6.5 nM
- agonistic activity: agonistic activity

Structure (SMILES): Cn1nc(C(C)(C)C)cc1NC(=O)C(C)(C)S(=O)(=O)CC1CCCCC1 [N-(5-tert-Butyl-2-methyl-2H-pyrazol-3-yl)-2-cyclohexylmethanesulfonyl-2-methyl-propionamide]
- EC50: 23.8 nM
- agonistic activity: agonistic activity

Structure (SMILES): Cn1nc(C(C)(C)C)cc1NC(=O)C(C)(C)S(=O)(=O)C1CCCC1 [N-(5-tert-Butyl-2-methyl-2H-pyrazol-3-yl)-2-cyclopentanesulfonyl-2-methyl-propionamide]
- agonistic activity: agonistic activity

Structure (SMILES): CCS(=O)(=O)C(C)(C)C(=O)Nc1cc(C(C)(C)C)nn1C [N-(5-tert-Butyl-2-methyl-2H-pyrazol-3-yl)-2-ethanesulfonyl-2-methyl-propionamide]
- agonistic activity: agonistic activity

Structure (SMILES): Cn1nc(C(C)(C)C)cc1NC(=O)C(C)(C)S(C)(=O)=O [N-(5-tert-Butyl-2-methyl-2H-pyrazol-3-yl)-2-methanesulfonyl-2-methyl-propionamide]
- agonistic activity: agonistic activity

Structure (SMILES): Cn1nc(C(C)(C)C)cc1NC(=O)C(C)(C)S(=O)(=O)C(C)(C)C [N-(5-tert-Butyl-2-methyl-2H-pyrazol-3-yl)-2-methyl-2-(2-methyl-propane-2-sulfonyl)-propionamide]
- agonistic activity: agonistic activity

Structure (SMILES): CC(C)CCS(=O)(=O)C(C)(C)C(=O)Nc1cc(C(C)(C)C)nn1C [N-(5-tert-Butyl-2-methyl-2H-pyrazol-3-yl)-2-methyl-2-(3-methyl-butane-1-sulfonyl)-propionamide]
- EC50: 15.4 nM
- agonistic activity: agonistic activity

Structure (SMILES): Cn1nc(C(C)(C)C)cc1NC(=O)C(C)(C)S(=O)(=O)C[C@H]1CCC(=O)N1 [N-(5-tert-Butyl-2-methyl-2H-pyrazol-3-yl)-2-methyl-2-((R)-5-oxo-pyrrolidin-2-ylmethanesulfonyl)-propionamide]
- agonistic activity: agonistic activity

Structure (SMILES): Cn1nc(C(C)(C)C)cc1NC(=O)C(C)(C)S(=O)(=O)C[C@@H]1CCC(=O)N1 [N-(5-tert-Butyl-2-methyl-2H-pyrazol-3-yl)-2-methyl-2-((S)-5-oxo-pyrrolidin-2-ylmethanesulfonyl)-propionamide]
- agonistic activity: agonistic activity

Structure (SMILES): CCCS(=O)(=O)C(C)(C)C(=O)Nc1cc(C(C)(C)C)nn1C [N-(5-tert-Butyl-2-methyl-2H-pyrazol-3-yl)-2-methyl-2-(propane-1-sulfonyl)-propionamide]
- agonistic activity: agonistic activity

Structure (SMILES): CC(C)S(=O)(=O)C(C)(C)C(=O)Nc1cc(C(C)(C)C)nn1C [N-(5-tert-Butyl-2-methyl-2H-pyrazol-3-yl)-2-methyl-2-(propane-2-sulfonyl)-propionamide]
- agonistic activity: agonistic activity

Structure (SMILES): Cn1nc(C(C)(C)C)cc1NC(=O)C(C)(C)S(=O)(=O)CC1CCCO1 (stereo not shown) [N-(5-tert-Butyl-2-methyl-2H-pyrazol-3-yl)-2-methyl-2-(tetrahydro-furan-2-ylmethanesulfonyl)-propionamide]
- agonistic activity: agonistic activity

Structure (SMILES): Cn1nc(C(C)(C)C)cc1NC(=O)C(C)(C)S(=O)(=O)CC1CCCCO1 (stereo not shown) [N-(5-tert-Butyl-2-methyl-2H-pyrazol-3-yl)-2-methyl-2-(tetrahydro-pyran-2-ylmethanesulfonyl)-propionamide]
- agonistic activity: agonistic activity

Structure (SMILES): Cn1nc(C(C)(C)C)cc1NC(=O)C(C)(C)S(=O)(=O)C1CCOCC1 [N-(5-tert-Butyl-2-methyl-2H-pyrazol-3-yl)-2-methyl-2-(tetrahydro-pyran-4-sulfonyl)-propionamide]
- agonistic activity: agonistic activity

Structure (SMILES): Cn1nc(C(C)(C)C)cc1NC(=O)C(C)(C)S(=O)(=O)CC1CCOCC1 [N-(5-tert-Butyl-2-methyl-2H-pyrazol-3-yl)-2-methyl-2-(tetrahydro-pyran-4-ylmethanesulfonyl)-propionamide]
- agonistic activity: agonistic activity

Structure (SMILES): Cc1nc(NC(=O)C(C)(C)S(=O)(=O)Cc2ccc(Cl)cc2)sc1C(C)(C)C [N-(5-tert-Butyl-4-methyl-thiazol-2-yl)-2-(4-chloro-phenylmethanesulfonyl)-2-methyl-propionamide]
- EC50: 12.1 nM
- agonistic activity: agonistic activity

Structure (SMILES): Cc1nc(NC(=O)C(C)(C)S(=O)(=O)C(C)(C)C)sc1C(C)(C)C [N-(5-tert-Butyl-4-methyl-thiazol-2-yl)-2-methyl-2-(2-methyl-propane-2-sulfonyl)-propionamide]
- EC50: 10.7 nM
- agonistic activity: agonistic activity

Structure (SMILES): CCCS(=O)(=O)C(C)(C)C(=O)Nc1nc(C)c(C(C)(C)C)s1 [N-(5-tert-Butyl-4-methyl-thiazol-2-yl)-2-methyl-2-(propane-1-sulfonyl)-propionamide]
- EC50: 7.2 nM
- agonistic activity: agonistic activity

Structure (SMILES): Cc1nc(NC(=O)C(C)(C)S(=O)(=O)C(C)C)sc1C(C)(C)C [N-(5-tert-Butyl-4-methyl-thiazol-2-yl)-2-methyl-2-(propane-2-sulfonyl)-propionamide]
- EC50: 25.8 nM
- agonistic activity: agonistic activity

Structure (SMILES): Cc1nc(NC(=O)C(C)(C)S(=O)(=O)C2CCOCC2)sc1C(C)(C)C [N-(5-tert-Butyl-4-methyl-thiazol-2-yl)-2-methyl-2-(tetrahydro-pyran-4-sulfonyl)-propionamide]
- EC50: 0.3 nM
- agonistic activity: agonistic activity

Structure (SMILES): Cc1nc(NC(=O)C(C)(C)S(=O)(=O)CC2CCOCC2)sc1C(C)(C)C [N-(5-tert-Butyl-4-methyl-thiazol-2-yl)-2-methyl-2-(tetrahydro-pyran-4-ylmethanesulfonyl)-propionamide]
- EC50: 0.2 nM
- agonistic activity: agonistic activity

Structure (SMILES): Cc1nc(NC(=O)C(C(C)C)S(=O)(=O)C(C)C)sc1C(C)(C)C (stereo not shown) [N-(5-tert-Butyl-4-methyl-thiazol-2-yl)-3-methyl-2-(propane-2-sulfonyl)-butyramide]
- agonistic activity: agonistic activity

Structure (SMILES): CC(C)(C)c1nnc(NC(=O)C(C)(C)S(=O)(=O)CC2CCOCC2)s1 [N-(5-tert-Butyl-[1,3,4]thiadiazol-2-yl)-2-methyl-2-(tetrahydro-pyran-4-ylmethanesulfonyl)-propionamide]
- agonistic activity: agonistic activity
